Experimental data published in the supplement of paper PMC10307832.

Assays:
Test in all cases: relative viability (nuclei count vs DMSO), 5 days (fraction); higher = more cells survive
[1] = compound: CCC1=CN=CN=C1N2CCN(CC2)CC3=NC4=C(N3)C=C(C=C4)C(F)(F)F + COc1cccc2cc(-c3nc([C@H]4CC[C@H](C(=O)O)CC4)n4ncnc(N)c34)[nH]c12 [OSI-027] (partner 0.5 µM)
Outline: (§1)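 A single step with final 0.05% Triton X-100, 1% formaldehyde and 1 ug/ml Hoechst fixed the cells and stained nuclei 5 days after treatment. Lung cancer cell lines in 1536-well plates had been treated by pin tool the day after seeding with one drug alone or a fixed anchor-drug dose plus five library-drug doses (not always all listed) in √10 steps, and nuclei were counted on 4× images. Relative viability is the ratio of nuclei in treated wells to nuclei in vehicle wells, taken as the median of duplicate plates.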

[2] = compound: CCC1=CN=CN=C1N2CCN(CC2)CC3=NC4=C(N3)C=C(C=C4)C(F)(F)F + Cc1nc(Nc2ncc(C(=O)Nc3c(C)cccc3Cl)s2)cc(N2CCN(CCO)CC2)n1 [Dasatinib] (partner 0.075 µM)
Outline: as §1

[3] = compound: CCn1c(-c2nonc2N)nc2cnc(Oc3cccc(NC(=O)c4ccc(OCCN5CCOCC5)cc4)c3)cc21 + CC(=O)Nc1cccc(-n2c(=O)n(C3CC3)c(=O)c3c(Nc4ccc(I)cc4F)n(C)c(=O)c(C)c32)c1 [Trametinib] (partner 0.02 µM)
Outline: as §1

[4] = compound: CCn1c(-c2nonc2N)nc2cnc(Oc3cccc(NC(=O)c4ccc(OCCN5CCOCC5)cc4)c3)cc21 + N=C(N)NC(=N)NCCc1ccccc1 [Phenformin] (partner 250 µM)
Outline: as §1

Row | Cell Line | relative viability ([1]; first compound 0.04 µM) | relative viability ([1]; first compound 0.1265 µM) | relative viability ([1]; first compound 0.4 µM) | relative viability ([1]; first compound 1.265 µM) | relative viability ([1]; first compound 4 µM) | relative viability ([2]; first compound 0.04 µM) | relative viability ([2]; first compound 0.1265 µM) | relative viability ([2]; first compound 0.4 µM) | relative viability ([2]; first compound 1.265 µM) | relative viability ([2]; first compound 4 µM) | relative viability ([3]; first compound 0.04 µM) | relative viability ([3]; first compound 0.1265 µM) | relative viability ([3]; first compound 0.4 µM) | relative viability ([3]; first compound 1.265 µM) | relative viability ([3]; first compound 4 µM) | relative viability ([4]; first compound 0.04 µM) | relative viability ([4]; first compound 0.1265 µM) | relative viability ([4]; first compound 0.4 µM) | relative viability ([4]; first compound 1.265 µM) | relative viability ([4]; first compound 4 µM)
1 | NCI-H2009 | 0.591 | 0.68 | 0.589 | 0.502 | 0.591 | 0.269 | 0.309 | 0.298 | 0.249 | 0.275 | 0.199 | 0.192 | 0.161 | 0.16 | 0.142 | 0.493 | 0.357 | 0.284 | 0.192 | 0.224
2 | NCI-H522 | 0.656 | 0.771 | 0.575 | 0.627 | 0.675 | 0.849 | 0.819 | 0.88 | 0.866 | 0.923 | 0.739 | 0.705 | 0.652 | 0.629 | 0.751 | 0.561 | 0.613 | 0.6 | 0.522 | 0.507
3 | ChaGo-K-1 | 0.542 | 0.564 | 0.513 | 0.559 | 0.52 | 0.654 | 0.635 | 0.555 | 0.615 | 0.492 | 1.06 | 0.928 | 0.844 | 0.89 | 0.866 | 0.599 | 0.413 | 0.306 | 0.351 | 0.398
4 | COR-L23 | 0.777 | 0.783 | 0.605 | 0.635 | 0.7 | 0.536 | 0.477 | 0.502 | 0.481 | 0.484 | 0.647 | 0.517 | 0.248 | 0.192 | 0.16 | 0.451 | 0.285 | 0.185 | 0.155 | 0.13
5 | EMC-BAC-2 | 0.37 | 0.37 | 0.386 | – | 0.375 | 0.358 | 0.354 | 0.322 | – | 0.289 | 0.905 | 0.922 | 0.826 | 0.401 | 0.445 | 0.502 | 0.387 | 0.259 | 0.176 | 0.178
6 | LCLC-103H | 0.48 | 0.492 | 0.4 | 0.456 | 0.457 | 0.473 | 0.444 | 0.414 | 0.483 | 0.474 | 0.651 | 0.737 | 0.655 | 0.638 | 0.639 | 0.421 | 0.286 | 0.182 | 0.216 | 0.222
7 | LK-2 | 0.17 | 0.22 | 0.182 | 0.165 | 0.23 | 0.325 | 0.314 | 0.257 | 0.258 | 0.318 | 0.753 | 0.969 | 0.65 | 0.666 | 0.899 | 0.864 | 0.618 | 0.167 | 0.189 | 0.244
8 | NCI-H3122 | 1.02 | 0.974 | 0.937 | 0.938 | 1.17 | 0.848 | 0.781 | 0.804 | 0.709 | 1.02 | 0.175 | 0.189 | 0.254 | 0.226 | 0.247 | 0.369 | 0.328 | 0.317 | 0.256 | 0.23
9 | NCI-H2126 | 0.759 | 0.688 | 0.624 | 0.628 | 0.708 | 0.589 | 0.593 | 0.535 | 0.516 | 0.485 | 0.61 | 0.594 | 0.562 | 0.583 | 0.57 | 0.646 | 0.571 | 0.392 | – | 0.405
10 | NCI-H520 | 0.261 | 0.32 | 0.268 | 0.214 | 0.248 | 0.212 | 0.181 | 0.224 | 0.206 | 0.226 | 0.734 | 0.738 | 0.469 | 0.406 | 0.311 | 0.887 | 0.631 | 0.404 | 0.306 | 0.288
11 | LOU-NH91 | 0.613 | 0.709 | 0.711 | 0.677 | 0.75 | 0.477 | 0.466 | 0.485 | 0.533 | 0.568 | 0.751 | 0.697 | 0.617 | 0.543 | 0.487 | 0.797 | 0.605 | 0.465 | 0.389 | 0.404
12 | NCI-H1651 | 0.805 | 0.795 | 0.641 | 0.757 | 0.788 | 0.542 | 0.294 | 0.403 | 0.386 | 0.368 | 0.925 | 0.891 | 0.828 | 0.623 | 0.81 | 0.433 | 0.323 | 0.287 | 0.266 | 0.239
13 | NCI-H460 | 0.752 | 0.59 | 0.645 | 0.538 | 0.595 | 0.583 | 0.467 | 0.544 | 0.472 | 0.541 | 0.132 | 0.203 | 0.0433 | 0.0407 | 0.0579 | 0.664 | 0.432 | 0.295 | 0.0979 | 0.0635
